From ChEMBL document CHEMBL6078637, “Cyclic Diguanylate G-Quadruplex Inducer-Quorum Sensing Inhibitor Hybrids as Bifunctional Anti-biofilm and Anti-virulence Agents Against Pseudomonas aeruginosa” (J Med Chem, 2024)
Active and inactive are the calls of the source. No cut-off for these calls is given here.

Tests used:
[1] = Inhibition of quorum sensing system in Pseudomonas aeruginosa PAO1 harboring mini-ctx-lasB-lacZ at 10 uM measured after 16 hrs by ONPG test relative to control
[2] = system: Pseudomonas aeruginosa; experiment: Antibacterial activity against Pseudomonas aeruginosa PAO1 incubated for 24 hrs by absorbance based assay; type: functional
[3] = system: Pseudomonas aeruginosa; experiment: Antibiofilm activity against Pseudomonas aeruginosa PAO1 harboring wspF mutant assessed as inhibition rate at 10 uM incubated for 24 hrs by absorbance based assay relative to control; type: functional
[4] = system: Pseudomonas aeruginosa; experiment: Antibiofilm activity against Pseudomonas aeruginosa PAO1 harboring wspF mutant assessed as inhibition rate at 1.25 uM incubated for 24 hrs by absorbance based assay relative to control; type: functional
[5] = system: Pseudomonas aeruginosa; experiment: Inhibition of beta-galactosidase in Pseudomonas aeruginosa PAO1 harboring mini-ctx-lasB-lacZ at 10 uM incubated for 6 hrs by ONPG test relative to control
[6] = system: Pseudomonas aeruginosa; experiment: Antivirulence activity against Pseudomonas aeruginosa PAO1 assessed as reduction in elastase level incubated for 24 hrs by elastin-Congo red staining based analysis; type: functional, organism-based; conditions: dose <= 10.0 µM
[7] = system: DNA; experiment: Binding affinity to pBR322 DNA (unknown origin) assessed as DNA embedding toxicity at 50 uM preincubated for 10 mins followed by Topo I addition measured after 1 hr by TO dye based PAGE analysis; type: nucleic-acid assay; conditions: time 70.0 min
[8] = system: Pseudomonas aeruginosa; experiment: Inhibition of beta-galactosidase in Pseudomonas aeruginosa PAO1 harboring mini-ctx-rhlA-lacZ at 10 uM incubated for 6 hrs by ONPG test relative to control
[9] = system: Pseudomonas aeruginosa; experiment: Antivirulence activity against Pseudomonas aeruginosa PAO1 assessed as reduction in rhamnolipid level incubated for 24 hrs by orcinol based analysis; type: functional, organism-based; conditions: dose <= 10.0 µM
[10] = Toxicity in Caenorhabditis elegans assessed as nematode survival upto 100 uM incubated for 96 hrs
[11] = Toxicity in Caenorhabditis elegans infected with Pseudomonas aeruginosa PAO1 assessed as reduction in nematode mortality rate at 10 uM incubated for 48 hrs in presence of TOB; parameters: scale not given: the % may be the effect or the level left
[12] = system: Pseudomonas aeruginosa; experiment: Inhibition of beta-galactosidase in Pseudomonas aeruginosa PAO1 harboring mini-ctx-lacZ at 10 uM incubated for 6 hrs by ONPG test relative to control
[13] = system: Pseudomonas aeruginosa; experiment: Synergistic inhibition of bacterial virulence of hyper-biofilm phenotype Pseudomonas aeruginosa PAO1 harboring wspF mutant upto 10 uM incubated for 36 hrs in presence of TOB; type: functional, organism-based
[14] = system: Pseudomonas aeruginosa; experiment: Inhibition of twitching motility of Pseudomonas aeruginosa PAO1 incubated overnight by crystal voilet staining based analysis; type: functional, organism-based; conditions: dose <= 10.0 µM
[15] = system: Pseudomonas aeruginosa; experiment: Synergistic inhibition of bacterial virulence of Pseudomonas aeruginosa PAO1 infected in Caenorhabditis elegans upto 10 uM incubated for 36 hrs in presence of tetracycline; type: functional, organism-based
[16] = system: Pseudomonas aeruginosa; experiment: Inhibition of swimming motility of Pseudomonas aeruginosa PAO1 at 10 uM incubated overnight relative to control; type: functional
[17] = Toxicity in Caenorhabditis elegans infected with Pseudomonas aeruginosa PAO1 assessed as nematode survival at 10 uM incubated for 48 hrs
[18] = system: Pseudomonas aeruginosa; experiment: Antibiofilm activity against Pseudomonas aeruginosa PAO1 harboring wspF mutant incubated for 24 hrs by absorbance based assay; type: functional, organism-based
[19] = Toxicity in Caenorhabditis elegans infected with hyper-biofilm phenotype Pseudomonas aeruginosa PAO1 harboring wspF mutant assessed as nematode death at 10 uM incubated for 48 hrs in presence of TOB
[20] = system: Pseudomonas aeruginosa; experiment: Inhibition of swarming motility of Pseudomonas aeruginosa PAO1 at 10 uM incubated overnight; type: functional, organism-based
[21] = Toxicity in Caenorhabditis elegans infected with Pseudomonas aeruginosa PAO1 assessed as nematode survival at 10 uM incubated for 48 hrs in presence of tetracycline
[22] = system: Pseudomonas aeruginosa; experiment: Synergistic inhibition of bacterial virulence of Pseudomonas aeruginosa PAO1 infected in Caenorhabditis elegans upto 10 uM incubated for 36 hrs in presence of TOB; type: functional, organism-based
[23] = system: Pseudomonas aeruginosa; experiment: Inhibition of beta-galactosidase in Pseudomonas aeruginosa PAO1 harboring mini-ctx-pqsA-lacZ at 10 uM incubated for 6 hrs by ONPG test relative to control
[24] = system: Pseudomonas aeruginosa; experiment: Antivirulence activity against Pseudomonas aeruginosa PAO1 assessed as reduction in pyocyanin level incubated for 24 hrs by absorbance based assay; type: functional, organism-based; conditions: dose <= 10.0 µM
[25] = Hemolytic activity in rabbit erythrocytes assessed as damage in cell membrane integrity at 100 uM incubated for 4 hrs by absorbance based assay; type: toxicity, Oryctolagus cuniculus; conditions: erythrocyte
[26] = system: Pseudomonas aeruginosa; experiment: Antivirulence activity against Pseudomonas aeruginosa PAO1 assessed as reduction in rhamnolipid level at 10 uM incubated for 24 hrs by orcinol based analysis; type: functional, organism-based
[27] = system: Pseudomonas aeruginosa; experiment: Inhibition of swarming motility of Pseudomonas aeruginosa PAO1 incubated overnight; type: functional, organism-based; conditions: dose <= 10.0 µM
[28] = system: Pseudomonas aeruginosa; experiment: Inhibition of swimming motility of Pseudomonas aeruginosa PAO1 incubated overnight; type: functional, organism-based; conditions: dose <= 10.0 µM
[29] = system: Pseudomonas aeruginosa; experiment: Antivirulence activity against Pseudomonas aeruginosa PAO1 assessed as reduction in hemolysin level at 10 uM preincubated for 24 hrs followed by addition of erythrocytes measured after 30 mins by absorbance based analysis relative to control; type: functional; parameters: scale not given: the % may be the effect or the level left
[30] = system: Pseudomonas aeruginosa; experiment: Inhibition of beta-galactosidase in Pseudomonas aeruginosa PAO1 harboring mini-ctx-lasB-lacZ incubated for 6 hrs by ONPG test; conditions: dose <= 10.0 µM
[31] = system: DNA; experiment: Binding affinity to pBR322 DNA (unknown origin) assessed as DNA migration at 50 uM preincubated for 10 mins followed by Topo I addition measured after 1 hr by TO dye based PAGE analysis; type: nucleic-acid assay; conditions: time 70.0 min
[32] = system: Pseudomonas aeruginosa; experiment: Synergistic inhibition of bacterial virulence of hyper-biofilm phenotype Pseudomonas aeruginosa PAO1 harboring wspF mutant upto 10 uM incubated for 36 hrs in presence of tetracycline; type: functional, organism-based
[33] = system: Vero; experiment: Cytotoxicity against African green monkey Vero cells at 12.5 uM incubated for 24 hrs by MTT assay; type: toxicity, cell-based; conditions: chlorocebus sabaeus
[34] = Toxicity in Caenorhabditis elegans infected with hyper-biofilm phenotype Pseudomonas aeruginosa PAO1 harboring wspF mutant assessed as nematode death at 10 uM incubated for 48 hrs in presence of tetracycline
[35] = system: Pseudomonas aeruginosa; experiment: Antivirulence activity against Pseudomonas aeruginosa PAO1 assessed as reduction in elastase level at 10 uM incubated for 24 hrs by elastin-Congo red staining based analysis relative to control; type: functional; parameters: scale not given: the % may be the effect or the level left
[36] = system: Pseudomonas aeruginosa; experiment: Inhibition of twitching motility of Pseudomonas aeruginosa PAO1 at 10 uM incubated overnight by crystal voilet staining based analysis; type: functional, organism-based
[37] = system: Pseudomonas aeruginosa; experiment: Synergistic antibacterial activity against Pseudomonas aeruginosa PAO1 assessed as bacterial growth inhibition at 20 uM incubated for 24 hrs in presence of tetracycline by CFU counting method; type: functional, organism-based
[38] = system: Pseudomonas aeruginosa; experiment: Inhibition of beta-galactosidase in Pseudomonas aeruginosa PAO1 harboring mini-ctx-pqsA-lacZ incubated for 6 hrs by ONPG test; conditions: dose <= 10.0 µM

## C[n+]1c(/C=C/c2ccc3nc[nH]c3c2)ccc2ccccc21
[1]
  inhibition: 1.69%
[2]
  MIC: > 128 µM

## C[n+]1c(/C=C/c2ccc3ccc(=O)oc3c2)sc2ccccc21
[1]
  inhibition: 2.42%
[2]
  MIC: > 128 µM

## CC[C@H]1OC(=O)[C@H](C)[C@@H](O[C@H]2C[C@@](C)(OC)[C@@H](O)[C@H](C)O2)[C@H](C)[C@@H](O[C@@H]2O[C@H](C)C[C@H](N(C)C)[C@H]2O)[C@](C)(O)C[C@@H](C)CN(C)[C@H](C)[C@@H](O)[C@]1(C)O [AZITHROMYCIN]
[3]
  inhibition at 10 µM: 43.9%

## C[n+]1c(/C=C/c2ccc3ccc(=O)oc3c2)ccc2ccccc21
[1]
  inhibition: 2.74%
[2]
  MIC: > 128 µM

## C[n+]1c(/C=C/c2cc3ccccc3[nH]2)ccc2ccccc21
[1]
  inhibition: 1.42%
[2]
  MIC: > 128 µM

## Cc1ccc2[nH]cc(/C=C/c3ccc4ccccc4[n+]3C)c2c1
[1]
  inhibition: 17%
[4]
  inhibition at 1.25 µM: ~21%
[2]
  MIC: > 128 µM

## C[n+]1c(/C=C/c2c[nH]c3ccc([N+](=O)[O-])cc23)ccc2ccccc21
[1]
  inhibition: 4.62%
[2]
  MIC: > 128 µM

## C[n+]1c(/C=C/c2c[nH]c3ccc(Br)cc23)ccc2ccccc21
[1]
  inhibition: 2.52%
[2]
  MIC: > 128 µM

## Cc1cc(=O)c(O)c(/C=C/c2sc3ccccc3[n+]2C)o1
[1]
  inhibition: 7.78%
[2]
  MIC: > 128 µM

## COc1ccc2[nH]cc(/C=C/c3ccc4ccccc4[n+]3C)c2c1
[1]
  inhibition: 16.6%
[4]
  inhibition at 1.25 µM: ~21%
[2]
  MIC: > 128 µM

## C[n+]1c(/C=C/c2cc3ccccc3[nH]2)sc2ccccc21
[1]
  inhibition: 2.23%
[2]
  MIC: > 128 µM

## C[n+]1c(/C=C/c2c[nH]c3ccc(O)cc23)ccc2ccccc21
[1]
  inhibition: 7.32%
[2]
  MIC: > 128 µM

## C[n+]1c(/C=C/c2ccc3nc[nH]c3c2)sc2ccccc21
[1]
  inhibition: 3.2%
[2]
  MIC: > 128 µM

## C[n+]1c(/C=C/c2cscn2)sc2ccccc21
[1]
  inhibition: 3.65%
[2]
  MIC: > 128 µM

## C[n+]1c(/C=C/c2c[nH]c3cc(Cl)ccc23)ccc2ccccc21
[1]
  inhibition: 3.02%
[2]
  MIC: > 128 µM

## C[n+]1c(/C=C/c2cc(=O)c(O)co2)ccc2ccccc21
[1]
  inhibition: 0.45%
[2]
  MIC: > 128 µM

## C[n+]1c(/C=C/c2cccc3ocnc23)ccc2ccccc21
[1]
  inhibition: 2.91%
[2]
  MIC: > 128 µM

## C[n+]1c(/C=C/c2coc3ccccc3c2=O)ccc2ccccc21
[1]
  inhibition: 1.21%
[2]
  MIC: > 128 µM

## C[n+]1c(/C=C/c2coc3ccccc3c2=O)sc2ccccc21
[1]
  inhibition: 7.3%
[2]
  MIC: > 128 µM

## C[n+]1c(/C=C/c2c[nH]c3ccc(Cl)cc23)ccc2ccccc21
[1]
  inhibition: 4.53%
[2]
  MIC: > 128 µM

## C[n+]1c(/C=C/c2cscn2)ccc2ccccc21
[1]
  inhibition: 4.55%
[2]
  MIC: > 128 µM

## C[n+]1c(/C=C/c2c[nH]c3cc(F)ccc23)ccc2ccccc21
[1]
  inhibition: 9.14%
[4]
  inhibition at 1.25 µM: ~21%
[2]
  MIC: > 128 µM

## C[n+]1c(/C=C/c2c[nH]c3cc(Br)ccc23)ccc2ccccc21
[1]
  inhibition: 0.5%
[4]
  inhibition at 1.25 µM: ~21%
[2]
  MIC: > 128 µM

## C[n+]1c(/C=C/c2c[nH]c3ccc(F)cc23)ccc2ccccc21.[I-]
[5]
  inhibition: 30%
[6]
  Activity: Dose-dependent-effect
[7]
  Activity: Not toxic
[8]
  inhibition: 10%
[9]
  Activity: Dose-dependent-effect
[10]
  Activity: Non-toxic
[11]
  Activity: ~ 50%
[12]
  inhibition: 8.03%
[13]
  Activity: Active
[1]
  inhibition: 40.3%
[14]
  inhibition: Dose-dependent-effect
[15]
  Activity: Active
[16]
  inhibition at 10 µM: 22.4%
[17]
  Activity: Toxic
[4]
  inhibition at 1.25 µM: ~21%
[18]
  inhibition: Dose-dependent-effect
[18]; PAO1, 24 h
  IC50: 23.4 µM
[19]
  Activity: Non-toxic
[20]
  inhibition: Active; Inhibitory Effect Was Comparable To Qs Deficient Pao1 Double Mutant Lasi/Rhli
[21]
  Survival: 86.3%
[22]
  Activity: Active
[23]
  inhibition: 30%
[24]
  Activity: Dose-dependent-effect
[3]
  inhibition at 10 µM: ~40%
[25]
  Activity: Non-toxic
[26]
  Activity: Active; Exhibited Relatively Modest Activity
[27]
  inhibition: Dose-dependent-effect
[28]
  inhibition: Dose-dependent-effect
[29]
  Activity: 51.3%
[30]
  inhibition: Dose-dependent-effect
[2]
  MIC: > 128 µM
[31]
  Activity: Not toxic
[32]
  Activity: Active
[33]
  Activity: Non-toxic
[34]
  Activity: Non-toxic
[35]
  Activity: 48.51%
[36]
  inhibition: Active; Exhibited Only A Modest Impact
[37]
  Activity: Active
[38]
  inhibition: Dose-dependent-effect

## C[n+]1c(/C=C/c2ccc3c(c2)CCO3)sc2ccccc21
[1]
  inhibition: 3.6%
[2]
  MIC: > 128 µM

## C[n+]1c(/C=C/c2ccc3ocnc3c2)sc2ccccc21
[1]
  inhibition: 1.14%
[2]
  MIC: > 128 µM

## C[n+]1c(/C=C/c2c[nH]c3ccccc23)sc2ccccc21
[1]
  inhibition: 20.9%
[4]
  inhibition at 1.25 µM: ~21%
[2]
  MIC: > 128 µM

## C[n+]1c(/C=C/c2cc(=O)c(O)co2)sc2ccccc21
[1]
  inhibition: 4.1%
[2]
  MIC: > 128 µM

## C[n+]1c(/C=C/c2cccc3c2CCO3)ccc2ccccc21
[1]
  inhibition: 9.4%
[2]
  MIC: > 128 µM

## Cc1ccc2c(/C=C/c3ccc4ccccc4[n+]3C)c[nH]c2c1
[1]
  inhibition: 16.2%
[4]
  inhibition at 1.25 µM: ~21%
[2]
  MIC: > 128 µM

## Cc1cc(=O)c(O)c(/C=C/c2ccc3ccccc3[n+]2C)o1
[1]
  inhibition: 4.86%
[2]
  MIC: > 128 µM

## COc1ccc2c(/C=C/c3ccc4ccccc4[n+]3C)c[nH]c2c1
[1]
  inhibition: 17.9%
[4]
  inhibition at 1.25 µM: ~21%
[2]
  MIC: > 128 µM
